“Also recorded” adds a separate entry of the source. Where two headings read alike, the source gives them in different places.
Assays:
rat glial cells [1] = assay: Calcium wave propagation (Fluo-3, mechanical stimulation); type: cell-based
Experimental: Rat glial cells were loaded with 5 µM Fluo-3/AM (Calbiochem) in Hank's balanced salt solution containing 25 mM HEPES buffer (HBSS/HEPES) for 1 hour, at which point the loading buffer was exchanged for new HBSS/HEPES buffer. The cell cultures were then left at room temperature for at least 30 minutes. Mechanical stimulation of a single cell was performed as follows: a glass micropipette (tip diameter of approximately 0.5 µm) was micro-manipulated downward on to a single cell causing a transient deformation of the cell membrane. The calcium image was then examined with an inverted fluorescence microscope, and photographed with a digital fluorescence microscope (excitation = 506 nm, emmision = 526 nm). The degree of calcium wave propagation was quantitated by counting at different time points the number of transmitting cells in one linear direction away from the stimulated cell. Junctional dye transfer rates were simultaneously examined by microinjection of Lucifer yellow CH in the same dishes; the methods for dye transfer assay was described in assay procedures, gap junction dye coupling assays. For calcium wave and dye transfer studies, the drug was preincubated with the glial cells for 10 minutes, and the drug was left in the experimental solution throughout the examination. All measurements were performed at room temperature.

astrocyte calcium waves = details: mechanical stimulation or local glutamate application; cited from earlier work
rat glial cells [2] = assay: Gap junction electrical coupling assay (double whole cell patch recording); type: cell-based
Experimental: Junctional conductance was measured using double whole cell patch recording performed on pairs of rat glial cells as described (Miller et al., (1992) J Mem. Biol. 128, 91-102) with a pipette solution of (in […]): Kaspartate 160, EGTA 10, CaCl2 2, HEPES 10 (pH 7.2), ATP 4. The external solution contained (in mM): NaCl 160, KCl 4.5, CaCl2 2, MgCl2 1, HEPES 10, pH 7.4. Both cells were held at -40 mV and pulses to -20 mV were alternately applied to each cell. Holding currents were subtracted in the records shown. Cells that were examined were generally in contact with other cells. The electrical conductance was calculated as the junctional current divided by 20 mV. All dye-coupling and conductance studies were performed at room temperature.

astrocyte = details: cited from earlier work
[3] = system: rat glial cell gap junction; assay: Gap junction dye coupling assay (Lucifer yellow dye transfer; microinjection or scrape loading); type: cell-based; details: for potency of gap junction inhibition relative to oleamide: comparison in words; for reversibility of gap junction inhibition: removal of media containing the agent, replacement with fresh media
Experimental: (§1) Rat glial cells (Suter et al., 1987) obtained from Dr. Trosko's laboratory were cultured in standard plastic tissue cultureware in Richter's Improved Minimal Essential Medium (Irvine Scientific, Santa Ana, CA), supplemented with 10% fetal calf serum and 50 µg/ml gentamicin sulfate, and incubated in a humidified atmosphere of 95% air/5% CO2 at 37°C. The cells were passaged by trypsinization and used at passages 4-8. BHK (baby hamster kidney) cells that were stably transfected with a β1 connexin cDNA (Kumar et al., 1995) were cultured in DMEM medium supplemented with 5% fetal calf serum and 50 µg/ml gentamicin sulfate, and incubated in a humidified atmosphere of 95% air/5% CO2 at 37° C. In order to induce β1 connexin expression in the BHK cells, 100 µM zinc acetate was added to culture medium for 8-18 hours when the cell culture was about 90% confluent.
(§2) Gap junctional communication in glial cell and BHK/β1 cell cultures was assayed by microinjection of 5% Lucifer yellow CH dye in 0.1 M LiCl solution, and quantitated by determining the number of directly adjacent, neighboring cells that received dye (dye-coupling). Micropipettes were loaded with the dye solution by backfilling. Cells were visualized using a Nikon Diaphot inverted phase contrast/ epifluorescent microscope, and impaled with dye-filled micropipettes using an Eppendorf microinjector (model 5246). Five minutes after dye-injection, the transfer of dye to directly adjacent cells was determined using epifluorescent illumination. For each treatment condition, ten cells were microinjected in each of three dishes, the total number of dye-coupled neighboring cells was calculated and compared to determine the % dye-coupling. For scrape loading measurements, Lucifer yellow CH (0.05% dye in PBS) was loaded intracellularly by cutting or scraping cells in the monolayer with a sharp knife. The dye solution was left in the dish for 90 seconds, then the solution was discarded, and the dish subsequently washed with PBS. The cells were examined for dye transfer with an inverted epifluorescence microscope, and the degree of communication was assessed by determining the extent of Lucifer yellow transfer into contiguous cells.

BHK/β1 cells = assay: Gap junction dye transfer between β1 connexin-transfected BHK cells; type: cell-based, baby hamster
Experimental: as §1, §2

[4] = system: Chinese hamster V79 cells; details: cited from earlier work
α1 connexin = assay: Immunoblotting of α1 connexin phosphorylation isoforms; type: cell-based, rat; details: for α1 connexin phosphorylation profile (P2 isoform): 50 µM, 4 hours
Experimental: Plasma membrane fractions containing gap junctions were obtained after hypotonic alkali extraction of the glial cells. The extracted protein was dissolved in 2% SDS and the total protein was determined using the Bio-Rad DC Protein Assay kit (Bio-Rad Corp.). 10 µg of protein was electrophoresed by 10% SDS-PAGE, and subsequently blotted electrophoretically on to Immobilon-P membranes (Millipore Corp.). Gap junction protein was detected using anti-α1 connexin polyclonal rabbit antibodies, and the HRP/Chemiluminescence detection kit (Amersham Corp.) following the manufacturer's instructions.

[5] = animals, ip or iv injection; cited from earlier work
[6] = system: mammalian myocardial cells; assay: Gap junctional communication between myocardial cells (preliminary analysis); type: cell-based; details: unpublished observations
striatal astrocytes = details: cited from earlier work
rat cardiac myocytes = details: cited from earlier work
[7] = system: rat liver epithelial cells; details: cited from earlier work
[8] = molecular target: T1, fatty acid amide hydrolase (Rattus norvegicus, UniProt P97612); assay: Inhibition of fatty acid amide hydrolase; type: biochemical
T1 sequence (P97612 1-579): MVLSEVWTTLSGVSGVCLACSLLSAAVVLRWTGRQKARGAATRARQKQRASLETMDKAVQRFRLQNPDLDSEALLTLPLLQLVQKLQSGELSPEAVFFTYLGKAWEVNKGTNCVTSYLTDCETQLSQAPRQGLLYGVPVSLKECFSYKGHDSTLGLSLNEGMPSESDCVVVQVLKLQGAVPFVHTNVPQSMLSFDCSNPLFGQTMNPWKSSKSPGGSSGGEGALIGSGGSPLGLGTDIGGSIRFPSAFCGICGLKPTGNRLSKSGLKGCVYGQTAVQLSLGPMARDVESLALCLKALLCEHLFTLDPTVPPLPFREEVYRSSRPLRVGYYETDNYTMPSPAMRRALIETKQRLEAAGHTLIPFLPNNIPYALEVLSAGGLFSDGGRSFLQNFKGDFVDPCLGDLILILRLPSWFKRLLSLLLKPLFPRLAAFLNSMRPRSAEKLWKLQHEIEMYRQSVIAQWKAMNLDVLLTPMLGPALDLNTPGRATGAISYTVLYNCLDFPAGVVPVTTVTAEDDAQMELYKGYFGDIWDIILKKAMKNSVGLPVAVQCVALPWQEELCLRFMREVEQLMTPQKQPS

[9] = Induction of physiological sleep; type: in vivo; details: rats
[10] = result in words, concentration not stated at the place

In the case of `CCCCC/C=C\C/C=C\C/C=C\C/C=C\CCCC(=O)NCCO` [anandamide, reference compound], the calcium wave transmission (rat glial cells [1]; concentration not given) is given as “without affecting calcium wave transmission”, the “propagation of astrocyte calcium waves” value (astrocyte calcium waves) is given as “block the propagation of astrocyte calcium waves” and the electrical coupling (rat glial cells [2]; concentration not given) is given as “selectively inhibiting gap junction communication”. For the same molecule, the “gap junction-mediated dye transfer” value (astrocyte) was “inhibit gap junction-mediated dye transfer”, the “inhibition of gap junction-mediated dye transfer” value ([3]; 50 µM) was “effective inhibitors” and the “potency of gap junction inhibition relative to oleamide” value [3] was “blocked dye transfer at doses comparable to oleamide”. For the same molecule, the “inhibition of gap junction-mediated dye transfer” value [3, 10] was “selectively inhibiting gap junction communication” and the “effect on dye transfer” value (BHK/β1 cells; concentration not given) was “inhibitory effects”.
In the case of `CCCCCCCC/C=C\CCCCCCCC(=O)OCC(CO)OC(C)=O` (racemic) [1-oleoyl-2-acetylglycerol, reference compound], the “inhibition of gap junction-mediated dye transfer” value [3, 10] is listed as “not inhibitors” and the gap junction inhibition [4] is listed as “gap junction inhibition”.
With `CCCCCCCC/C=C\CCCCCCCC(N)=O` [oleamide, cis-9-octadecenamide] the “mechanically-stimulated or glutamate-induced calcium wave propagation” value (rat glial cells [1]) was “no inhibitory effect”, the “mechanically-induced calcium wave propagation” value (rat glial cells [1]; 50 µM, preincubation from 10 minutes to 4 hours) was “no impact; also recorded: indistinguishable manner from control cell populations” and the junctional electrical coupling (rat glial cells [2]; 50 µM) was “completely blocked; also recorded: completely uncoupled”. The “residual junctional conductance (upper limit)” value (rat glial cells [2]; 50 µM) was “less than 50 pS”, the mean junctional conductance (rat glial cells [2]; 50 µM, n=5) was 0.5 ± 0.7 nS and the “α1 connexin phosphorylation profile (P2 isoform)” value (α1 connexin) was “dramatic loss of the P2 isoform”. The “reversibility of the effect on the α1 phosphorylation profile” value (α1 connexin; removal of oleamide, normal culture media for 4 hours) was “proved reversible”, the “induction of physiological sleep” value [5] was “induce physiological sleep” and the “inhibition of glial cell dye transfer” value ([3]; 20 µM, preincubation 4 h) was “significantly inhibited”. For the same molecule, the “block of intercellular dye transfer, microinjected Lucifer yellow” value ([3]; 50 µM for 10 min) was “completely blocked intercellular dye transfer”, the “inhibition of dye transfer” value ([3]; 50 µM, 4 h prior to injection of Lucifer yellow (dose-response)) was “complete inhibition” and the “recovery of dye transfer after removal of oleamide” value ([3]; 50 µM, then fresh media without oleamide) was “Complete recovery of dye transfer to control levels was observed within one hour”. The inhibition at 20 µM ([3]; Rattus norvegicus, Glial cell, read-out: inhibition of dye transfer) was about 50%, the “restoration of dye-coupling under continual exposure” value ([3]; continually exposed for up to 24 h) was “no restoration of dye-coupling” and the “time for junctional communication to recover to control levels after removal of oleamide” value ([3]; culture media changed) was at most 1 h. For the same molecule, the “inhibition of gap junction-mediated dye transfer” value [3, 10] was “most potent inhibitor”, the “dye transfer after scrape loading with Lucifer yellow” value ([3]; scrape loaded cells, pretreatment with oleamide) was “fully abrogated; also recorded: no dye spread to adjacent cells” and the “sensitivity of gap junctional communication to the inhibitory action” value [6] was “not as sensitive”. For the same molecule, the “effect on dye transfer” value (BHK/β1 cells; 50 µM for 10 min) was “no dye transfer”, the “effect on dye transfer” value (BHK/β1 cells; 50 µM for 10 min, listed as Oleamide) was “rapidly and completely block dye transfer” and the “effect on dye transfer” value (BHK/β1 cells; 50 µM, 4 hours of treatment) was “completely blocked dye transfer”. It also gave a dye transfer (BHK/β1 cells; 50 µM, 4 hours of treatment, zinc induced sample) of 0.31 ± 0.24%.
For `CCCCC/C=C\C/C=C\C/C=C\C/C=C\CCCC(=O)O` [arachidonic acid], the gap junction inhibition (striatal astrocytes) is listed as “inhibit the gap junction”.
In the case of `CCCCCCCC/C=C\CCCCCCCC(=O)O` [Oleic acid, reference compound], the gap junction inhibition (rat cardiac myocytes) is given as “inhibit the gap junction”, the gap junction inhibition (rat cardiac myocytes; listed as oleic acid) is given as “inhibit gap junction communication” and the “α1 connexin phosphorylation profile (P2 isoform)” value (α1 connexin) is given as “No change”. For the same molecule, the “inhibition of gap junction-mediated dye transfer” value [3, 10] was “inactive; also recorded: no effect”, the “inhibition of gap junction-mediated dye transfer” value ([3]; result in words, concentration not stated at the place, listed as oleic acid) was “no effect” and the “effect on dye transfer” value (BHK/β1 cells; 50 µM, 4 hours of treatment) was “no effect”. For the same molecule, the “effect on dye transfer” value (BHK/β1 cells; concentration not given) was “no effect”.
In the case of `CC/C=C\C/C=C\C/C=C\CCCCCCCC(=O)O` [α-linolenic acid], the gap junction inhibition [7] is listed as “inhibit the gap junction”.
With `CCCCCCCC/C=C\CCCCCCCC=O` [oleyl aldehyde] the Ki [8] was 190 nM, the “potency of gap junction inhibition relative to oleamide” value [3] was “nearly equipotent with oleamide” and the “reversibility of gap junction inhibition” value [3] was “reversible effect”. The “inhibition of gap junction-mediated dye transfer” value [3, 10] was “surprisingly effective”.
For `CCCCCCCC/C=C\CCCCCCCC(=O)NCCO` [oleyl ethanolamide], the “propagation of astrocyte calcium waves” value (astrocyte calcium waves) is listed as “block the propagation of astrocyte calcium waves”, the “gap junction-mediated dye transfer” value (astrocyte) is listed as “inhibit gap junction-mediated dye transfer” and the “inhibition of gap junction-mediated dye transfer” value ([3]; 50 µM) is listed as “effective inhibitors”. The “inhibition of gap junction-mediated dye transfer” value ([3]; 50 µM, listed as Oleyl ethanolamide) was “significant inhibitors”, the “potency of gap junction inhibition relative to oleamide” value [3] was “less potent than oleamide” and the “potency of gap junction inhibition relative to oleamide” value ([3]; listed as Oleyl ethanolamide) was “less potent than oleamide at lower doses”.
With `CCCCCCCC/C=C\CCCCCCCCCCCC(N)=O` [erucamide, Erucamide] the “induction of physiological sleep” value [9] was “does not induce physiological sleep” and the “inhibition of gap junction-mediated dye transfer” value [3, 10] was “not an inhibitor”.
For `CCCCCCCC/C=C\CCCCCCCC(=O)C(F)(F)F` [CF3], the Ki [8] was 1 nM, the “potency of gap junction inhibition relative to oleamide” value [3] was “significantly more potent than oleamide” and the “reversibility of gap junction inhibition” value [3] was “reversible effect”.

— EP1039902B1, “INHIBITORS OF GAP JUNCTION COMMUNICATION” (THE SCRIPPS RESEARCH INSTITUTE, priority 1997, dated 1999)
